From PMC8395040 (International Journal of Molecular Sciences, 2021)
Where two headings read alike, the source gives them in different places.

Assays:
H1975 = test: MTT cytotoxicity assay, H1975; type: cell-based; conditions: Homo sapiens; for cytotoxicity at 50 µM: read-out: % Cytotoxicity (50 µM) H1975; for IC50: 0.05–50 µM
Protocol: (§1) Cytotoxicity assays were performed by using the MTT reduction method as described previously. Briefly, cancer cell lines were plated in flat-bottom 96-well plates at a cell concentration of 5 × 10^3 cells/well for the fastest growing lines, such as HEK293 and HT29 cells and 1 × 10^4 cells/well for more slowly growing lines, such as HCT116, H1975, BxPC-3, AsPC-1, B16-F10 and DAOY. Then, cells were incubated with the synthesised compounds at different concentrations (from 0.05 to 50 µM) in 200 µL with 10% FBS in RPMI 1640 or DMEM F12 culture medium at 37 °C for 72 h. Later, 10 µL of MTT were added at a final concentration of 0.5 mg/mL, incubated at 37 °C for 4 h, and then solubilised with 10% sodium dodecyl sulphate (SDS) in 0.1 mM HCl and incubated overnight at 37 °C. Formazan formation was measured at 570 nm in a multiwell plate reader (Cytation 5, Biotek Instruments, Winooski, VT, USA). Three independent biological replicates were performed.

BxPC-3 = test: MTT cytotoxicity assay, BxPC-3; type: cell-based; conditions: Homo sapiens, 72 h, 0.05–50 µM
Protocol: as §1

AsPC-1 = test: MTT cytotoxicity assay, AsPC-1; type: cell-based; conditions: Homo sapiens, ASPC1, 72 h, 0.05–50 µM
Protocol: as §1

HCT116 = test: MTT cytotoxicity assay, HCT116; type: cell-based; conditions: Homo sapiens; for cytotoxicity at 50 µM: read-out: % Cytotoxicity (50 µM) HCT116; for IC50: 0.05–50 µM
Protocol: as §1

HEK293 = test: MTT cytotoxicity assay, HEK293 control cells; type: cell-based, human; conditions: Homo sapiens, HEK293; MTT, 72 h, non-cancer cell line;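 further: Read-out is formazan absorbance at 570 nm from MTT reduction in 96-well plates, with three independent biological replicates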
[1] = MTT cytotoxicity assay, HEK293 control cells; type: cell-based, human; conditions: human, HEK293 cells; 50 µM, 72 h, MTT;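 further: Read-out is formazan absorbance at 570 nm from MTT reduction in 96-well plates, with three independent biological replicates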
Daoy = test: MTT cytotoxicity assay, Daoy; type: cell-based, human; conditions: Homo sapiens, Daoy, 72 h; for IC50: 0.05–50 µM; for cytotoxicity at 50 µM: read-out: % Cytotoxicity (50 µM) DAOY;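 on all read-outs here: viability read as formazan absorbance at 570 nm after MTT reduction, three independent biological replicates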
HT29 = test: MTT cytotoxicity assay, HT29; type: cell-based; conditions: Homo sapiens; for cytotoxicity at 50 µM: read-out: % Cytotoxicity (50 µM) HT29; for IC50: 0.05–50 µM
Protocol: as §1

tumour cell lines = test: MTT cytotoxicity assay, summary over the tumour cell line panel; type: cell-based, human; conditions: 50 µM, 72 h, MTT, tumour cell lines tested
Protocol: as §1

GLI-luciferase reporter = molecular target: GLI-luciferase reporter; parameters: method as in PMID 24923765; conditions: cited from earlier work

Row | Structure (SMILES) | melting point [°C] | cytotoxicity at 50 µM (H1975; NCI-H1975, 72 h) [%] | IC50 (H1975; NCI-H1975, MTT, 72 h) [µM] | IC50 (BxPC-3) [µM] | IC50 (AsPC-1) [µM] | cytotoxicity at 50 µM (HCT116; HCT-116, 72 h) [%] | IC50 (HCT116; HCT-116, MTT, 72 h) [µM] | IC50 (HEK293) [µM] | cytotoxicity at 72 h, 50 µM [1] [%] | IC50 (Daoy; MTT) [µM] | cytotoxicity at 50 µM (Daoy) [%] | cytotoxicity at 50 µM (HT29; HT-29, 72 h) [%] | IC50 (HT29; HT-29, MTT, 72 h) [µM] | cytotoxicity at 50 µM (H1975; NCI-H1975, 50 µM, 72 h, MTT) [%] | cytotoxicity in tumour cell lines (tumour cell lines) | cytotoxicity at 50 µM (HCT116; HCT-116, 50 µM, 72 h, MTT) [%] | cytotoxicity at 50 µM (Daoy; 50 µM, MTT) [%] | cytotoxicity at 50 µM (HT29; HT-29, 50 µM, 72 h, MTT) [%] | IC50 in GLI-luciferase reporter assays (GLI-luciferase reporter)
1 | CCCCCn1cnc2c(-c3ccc(OC(F)(F)F)cc3)nc(NC3CCCCC3)nc21 [Compound 4e, N-cyclohexyl-9-pentyl-6-(4-(trifluoromethoxy)phenyl)-9H-purin-2-amine] | 108 to 110 | < 50 | 23 ± 0.3 | > 50 | > 50 | < 50 | > 50 | > 50 | < 50 | > 50 | < 50 | < 50 | > 50 | – | – | – | – | – | –
2 | CCCCCn1cnc2c(-c3ccc(OC(F)(F)F)cc3)nc(NCC3CCCCC3)nc21 [Compound 4h, N-(cyclohexylmethyl)-9-pentyl-6-(4-(trifluoromethoxy)phenyl)-9H-purin-2-amine] | 78 to 79 | 61 ± 1.2 | 39 ± 1.2 | > 50 | > 50 | < 50 | > 50 | > 50 | < 50 | 19 ± 1.1 | 81 ± 1.1 | < 50 | > 50 | – | – | – | – | – | –
3 | CCCCCn1cnc2c(-c3ccc(OC(F)(F)F)cc3)nc(N3CCN(c4ccncc4)CC3)nc21 [Compound 4r, 9-Pentyl-2-(4-(pyridin-4-yl)piperazin-1-yl)-6-(4-(trifluoromethoxy)phenyl)-9H-purine] | 109 to 110 | – | 7.7 ± 0.4 | > 50 | > 50 | – | 19 ± 0.8 | > 50 | < 50 | – | – | – | > 50 | < 50 | more than 80% | 81 ± 0.8 | 92 ± 0.4 | < 50 | –
4 | Cc1cccc(C)c1NC(=O)c1ccc(Nc2nc(-c3ccc(OC(F)(F)F)cc3)c3ncn(C)c3n2)cc1 [III] | – | – | – | – | – | – | – | – | – | – | – | – | – | – | – | – | – | – | nanomolar range
5 | Cc1ccc(CN2CCOCC2)cc1NC(=O)c1ccc(Nc2nc(-c3ccc(OC(F)(F)F)cc3)c3ncn(C)c3n2)cc1 [IV] | – | – | – | – | – | – | – | – | – | – | – | – | – | – | – | – | – | – | nanomolar range
